Converted amounts (≈) assume the structure as drawn. The source made the active and inactive calls. The calls are words filed in the database; no cut-off is given here.

Experimental findings from ChEMBL document CHEMBL3875175, “Multi-targeting exploration of new 2-aminothiazolyl quinolones: Synthesis, antimicrobial evaluation, interaction with DNA, combination with topoisomerase IV and penetrability into cells” (Eur J Med Chem, 2016) are described below.

In data set [1] the test system is Escherichia coli. In words: Antibacterial activity against Escherichia coli DH52 after 24 hrs by two fold serial dilution method. It is filed as functional. The following applies: DH52, 24 h.
A further data set concerns Micrococcus luteus. In words: Antibacterial activity against Micrococcus luteus ATCC 4698 after 24 hrs by two fold serial dilution method. The note with it: NCTC 2665, 24 h. It is filed as functional.
A further data set has as its system Saccharomyces cerevisiae. Kind of data set: Antifungal activity against Beer yeast after 24 hrs by two fold serial dilution method. It counts as functional.
For the next data set, the system named is Bacillus spizizenii. Kind of data set: Antibacterial activity against Bacillus subtilis ATCC 6633 after 24 hrs by two fold serial dilution method. It is filed as functional. The note with it: ATCC 6633, 24 h.
Another data set has as its system Proteus vulgaris. Kind of data set: Antibacterial activity against Bacillus proteus ATCC 13315 after 24 hrs by two fold serial dilution method. It is filed as functional. The note with it: ATCC 13315, 24 h.
Data set [2] has as its system Salmonella typhi. In words: Antibacterial activity against Bacillus typhi after 24 hrs by two fold serial dilution method. It is filed as functional, Salmonella enterica subsp. enterica serovar Typhi. The note with it: Salmonella enterica.
In a further data set the test system is Candida albicans. In words: Antifungal activity against Candida albicans ATCC 76615 after 24 hrs by two fold serial dilution method. It is filed as functional. The note with it: ATCC 76615, 24 h.
Data set [3] relates to Shigella dysenteriae. Kind of data set: Antibacterial activity against Shigella dysenteriae after 24 hrs by two fold serial dilution method. It counts as functional.
Data set [4] has as its system Staphylococcus aureus. In words: Antibacterial activity against methicillin-resistant Staphylococcus aureus N315 after 24 hrs by two fold serial dilution method. The following applies: N315, 24 h. It counts as functional.
For data set [5], the system named is Aspergillus flavus. In words: Antifungal activity against Aspergillus flavus after 24 hrs by two fold serial dilution method. It counts as functional.
Data set [6] relates to Shigella dysenteriae. Kind of data set: Potency index, ratio of norfloxacin MIC to compound MIC for Shigella dysenteriae. It is filed as functional.
In data set [7] the test system is Staphylococcus aureus. Kind of data set: Antibacterial activity against Staphylococcus aureus ATCC 25923 after 24 hrs by two fold serial dilution method. It is filed as functional. The following applies: ATCC 25923, 24 h.
The nature of data set [8]: Antifungal activity against Candida utilis after 24 hrs by two fold serial dilution method. It counts as functional. The note with it: Cyberlindnera jadinii.
A further data set deals with Pseudomonas aeruginosa. In words: Antibacterial activity against Pseudomonas aeruginosa ATCC 27853 after 24 hrs by two fold serial dilution method. It counts as functional. The following applies: ATCC 27853, 24 h.
Data set [9] relates to Shigella dysenteriae. Kind of data set: Potency index, ratio of chloromycin MIC to compound MIC for Shigella dysenteriae. It counts as functional.
In data set [10] the test system is Escherichia coli. In words: Antibacterial activity against Escherichia coli JM109 after 24 hrs by two fold serial dilution method. It is filed as functional. The following applies: JM109, 24 h.
Data set [11] can be described thus: Antifungal activity against Candida mycoderma after 24 hrs by two fold serial dilution method. The following applies: Pichia norvegensis. It is filed as functional.
The test system of data set [12] is Aspergillus flavus. In words: Potency index, ratio of fluconazole MIC80 to compound MIC80 for Aspergillus flavus. It counts as functional.
The subject of data set [13] is Staphylococcus aureus. In words: Antibacterial activity against methicillin-resistant Staphylococcus aureus N315 after 15 days by serial passage resistance development assay. It counts as functional.
Data set [14] has as its system Staphylococcus aureus. Kind of data set: Induction of membrane permeabilization in methicillin-resistant Staphylococcus aureus N315 at 12 times MIC measured for 2 hrs by propidium iodide staining based fluorescence assay. It counts as functional.
Data set [15] relates to Salmonella typhi. In words: Induction of membrane permeabilization in Bacillus typhi at 12 times MIC measured for 2 hrs by propidium iodide staining based fluorescence assay. It counts as functional. The following applies: Salmonella enterica subsp. enterica serovar Typhi.
Data set [16] deals with Staphylococcus aureus. In words: Bactericidal activity against methicillin-resistant Staphylococcus aureus N315 assessed as log reduction in bacterial count at 4 times MIC up to 1 hr by time-kill kinetic assay. It is filed as functional.
For data set [17], the species on record is Bos taurus. Kind of data set: Binding affinity to calf thymus DNA by UV-Visible spectroscopic method.
Data set [18] relates to Salmonella typhi. Kind of data set: Potency index, ratio of norfloxacin MIC to compound MIC for Bacillus typhi. It is filed as functional, Salmonella enterica subsp. enterica serovar Typhi.
Data set [19] can be described thus: Cytotoxicity against mouse L929 cells assessed as reduction in cell viability after 48 hrs by MTT assay. It counts as toxicity.
For data set [20], the species on record is Bos taurus. In words: Binding affinity to calf thymus DNA assessed as DNA intercalation up to 1.75 x 10^-5mol/L by neutral red dye based UV-Visible spectroscopic method.
In data set [21] the test system is Salmonella typhi. Kind of data set: Potency index, ratio of chloromycin MIC to compound MIC for Bacillus typhi. It is filed as functional, Salmonella enterica subsp. enterica serovar Typhi.
For data set [22], the species on record is Bos taurus. Kind of data set: Binding affinity to calf thymus DNA assessed as hypochromism up to 9 x 10^-5mol/L by UV-Visible spectroscopic method.

On to `CCCn1cc(-c2cnc(N)s2)c(=O)c2cc(F)cc(F)c21`, for which the minimum inhibitory concentration (MIC) in the data set with Escherichia coli [1] worked out at 64 µg/mL (≈ 199 µM); against Micrococcus luteus, 16 µg/mL (≈ 49.8 µM); in the data set with Bacillus spizizenii, 32 µg/mL (≈ 99.6 µM); in the data set with Proteus vulgaris, 64 µg/mL (≈ 199 µM); with Salmonella typhi [2] it was 16 µg/mL (≈ 49.8 µM); against Shigella dysenteriae [3] it was 4 µg/mL (≈ 12.4 µM). Moreover, the MIC in the data set with Staphylococcus aureus [4] was 32 µg/mL (≈ 99.6 µM); with Staphylococcus aureus [7] it was 16 µg/mL (≈ 49.8 µM); in the data set with Pseudomonas aeruginosa, 16 µg/mL (≈ 49.8 µM); against Escherichia coli [10] it was 64 µg/mL (≈ 199 µM). Further, the MIC80 against Saccharomyces cerevisiae was found to be 16 µg/mL (≈ 49.8 µM); in the data set with Candida albicans it was 32 µg/mL (≈ 99.6 µM); against Aspergillus flavus [5], 32 µg/mL (≈ 99.6 µM); in data set [8], 64 µg/mL (≈ 199 µM); in data set [11], 32 µg/mL (≈ 99.6 µM). Moreover, the Ratio with Shigella dysenteriae [6] and with Shigella dysenteriae [9] was 4 in each case.

With `C#CCn1cc(-c2cnc(N)s2)c(=O)c2cc(F)cc(F)c21`, the MIC in the data set with Escherichia coli [1] is 16 µg/mL (≈ 50.4 µM); against Micrococcus luteus, 32 µg/mL (≈ 101 µM); in the data set with Bacillus spizizenii, 16 µg/mL (≈ 50.4 µM); against Proteus vulgaris it was 32 µg/mL (≈ 101 µM); against Salmonella typhi [2] it was 1 µg/mL (≈ 3.15 µM); against Shigella dysenteriae [3], 8 µg/mL (≈ 25.2 µM). Further, the MIC against Staphylococcus aureus [4] worked out at 8 µg/mL (≈ 25.2 µM); against Staphylococcus aureus [7], 8 µg/mL (≈ 25.2 µM); in the data set on Pseudomonas aeruginosa, 16 µg/mL (≈ 50.4 µM); against Escherichia coli [10], 32 µg/mL (≈ 101 µM). Also, the Ratio in the data set on Aspergillus flavus [12] is 32; in the data set with Salmonella typhi [18], 4; with Salmonella typhi [21], 32. For the same compound, the result in the data set with Staphylococcus aureus [13], in the data set on Staphylococcus aureus [14], with Salmonella typhi [15], in the data set listed under Bos taurus [20] and in the data set listed under Bos taurus [22] was Active. Also, the MIC80 in the data set on Saccharomyces cerevisiae amounted to 8 µg/mL (≈ 25.2 µM); with Candida albicans, 16 µg/mL (≈ 50.4 µM); against Aspergillus flavus [5] it was 8 µg/mL (≈ 25.2 µM); in data set [8], 32 µg/mL (≈ 101 µM); in data set [11] it was 8 µg/mL (≈ 25.2 µM). For the same compound, in the data set on Staphylococcus aureus [16], the Activity stood at 3 log10CFU/ml. Also, the K in the data set listed under Bos taurus [17] stood at 0.538 ×10⁴ L/mol. Also, in [19], the IC50 at 48 h was determined as 289 µg/mL (≈ 911 µM).
